Source: a melting point compilation (Tetko et al.; mined from patent text by program, amines drawn as free bases though some values may be those of a salt)

Row | SMILES | melting point [°C]
1 | O=Cc1nc(C(Cl)Cl)cnc1N1C(=O)c2ccccc2C1=O | 145 to 146
2 | Nc1ncnc2c1ncn2C1OC(C(O)C(=O)OCc2ccccc2)C(O)C1O (configuration not stated) | 144 to 145
3 | BrC(Br)=Cc1ccccc1NCc1ccccc1 | 93 to 95
4 | C=Cc1ccc(-n2cnc([N+](=O)[O-])n2)c(C#N)c1 | 103 to 105
5 | COc1cc(C2C3=C(COC3=O)Nc3ccc4cc[nH]c4c32)cc(OC)c1OC (configuration not stated) | 299 to 301
6 | CC(=O)CC(=O)NC12CC3CC(CC(C3)C1)C2 | 80
7 | CCOC(=O)/C(N)=C/C(=O)/C=C/c1ccc(Cl)cc1 | 105 to 107
8 | N[C@H](C(=O)O)c1ccc(OCCOC2CCCCC2)cc1 | 219 to 220
9 | Cc1ncsc1C(C)(O)c1cc2ccccc2o1 (configuration not stated) | 139 to 140
10 | COC(=O)c1cc(O)cc(C(=O)OC)c1[N+](=O)[O-] | 183 to 186
11 | COCCNc1cc(Cl)cc(NCCOC)c1[N+](=O)[O-] | 90
12 | CCN(CC)C(=O)NC1C=C2c3cccc4[nH]c(Br)c(c34)CC2N(C)C1 (configuration not stated) | 204 to 208
13 | CSC1=Nc2ccccc2C2=NCC(Cn3ccnc3)N12 (configuration not stated) | 97 to 99
14 | C=CCN(CC=C)c1ccc(NCCO)cc1[N+](=O)[O-] | 166 to 170
15 | CSc1cc(SC)c(SC)cc1NC(C)=O | 87 to 89
16 | COc1ccc(-c2cc(=O)n(C)c(=O)n2CC(O)CNC(C)(C)C)cc1OC (configuration not stated) | 123 to 125
17 | CN(C)C(=O)Nc1ccc(N2CCOCC2)cc1 | 199 to 204
18 | O=C1CCCC(=O)N1c1cc(Cl)cc(Cl)c1 | 172 to 174
19 | O=[N+]([O-])c1ccc(Br)cc1-c1cc(-c2cccc(Br)c2)on1 | 195 to 197
20 | CC1(C)Cc2cccc(OC(=O)Cl)c2O1 | 85 to 87.5
21 | O=c1c2c(Cl)cccc2nc(CSc2ncnc3[nH]cnc23)n1-c1ccccc1Cl | 234
22 | CCOC(=O)c1cc(C)nc(NN=C(C)C)c1 | 79 to 82

Row | SMILES | melting point [°C]
23 | O=C1c2ccccc2C(=O)c2c(O)c(S(=O)(=O)c3ccccc3)cc(O)c21 | 258 to 260
24 | CCCCCCCCCCCCNC(=O)CSCc1cc(C(C)(C)C)c(O)c(C(C)(C)C)c1 | 43 to 46
25 | CC(C)(C)OC(=O)N(O)C(=O)CN | 115 to 117
26 | COc1ccc2c(c1)C(C)(C)C(CO)O2 (configuration not stated) | 65 to 67
27 | COCc1nc2c(N)nc3cc(CCC(=O)N(C)C)ccc3c2n1CC(C)(C)O | 142 to 145
28 | CC(=O)CCC(=O)C1=Cc2ccccc2C1 | 85
29 | Cc1noc(C)c1-c1cccc2c1C1(COc3cc4c(cc31)OCCO4)C(=O)N2C (configuration not stated) | 228 to 230
30 | CC1Nc2cccc3c(O)ccc(c23)S1(=O)=O (configuration not stated) | 245 to 246
31 | O=C1NCC(=O)c2[nH]cnc2N1 | > 300
32 | COc1cc2c(cc1OC)-c1cc(Cl)nc(=O)n1CC2 | 235 to 236
33 | COC(=O)NN=Cc1ccnc2ccccc12 | 83.5
34 | CCCOc1ccc(S(=O)(=O)NC[C@@H](C(=O)NO)N2CCN(S(C)(=O)=O)CC2)cc1 | 137
35 | CC#CCOc1cc(OCc2cccc(F)c2F)ncn1 | 84.9
36 | C=CCOc1cccc2c(=O)cc(N3CCOCC3)oc12 | 134 to 136
37 | CCN(CC)c1ccc(N(c2ccc(N(C)C)cc2)C2(c3ccc(N(C)C)cc3Cl)OC(=O)c3ccccc32)cc1 (configuration not stated) | 67 to 84
38 | O=Cc1ccccc1OCCOc1ccccc1C=O | 129
39 | COc1cc(OCc2ccccn2)ccc1C=O | 93.6
40 | CCOC(=O)c1c(C)n(C(C)=O)c(=O)n1C(C)=O | 56 to 58
41 | CCOC(=O)n1cc(C#N)c(-c2ccc(F)c(Cl)c2F)c1 | 132
42 | O=C1NC(=O)C2(CCCCC2)N1c1ccc(I)cc1 | 249 to 251
43 | CCOC(=O)CC(NC(=O)c1ccc(Cl)cc1)C(=O)C(C)C (configuration not stated) | 42 to 44
44 | CC1(C)C(C=C(Cl)Cl)C1C(=O)O (configuration not stated) | 86

Other lines, results leading:

Row | melting point [°C] | SMILES
45 | 166 to 167 | Cc1nc(NC(=O)Nc2ccc(N3CCN(C(=O)Nc4ccc(OCCO)cc4C(F)(F)F)CC3)cc2)sc1C
46 | 134 to 136 | CCOC(=O)COc1cccc(-c2n[nH]c3c2Cc2ccccc2-3)c1
47 | 74 to 77 | COC(=O)c1cccc(-c2nnc(-c3ccc(C(C)C)cc3)o2)c1
48 | 131 to 135 | CCOc1ccc(NC(=O)CC(Cc2cccc3ccccc23)C(=O)O)cc1 (configuration not stated)
49 | 171 to 173 | COc1cc(C(=O)NCCC2Cc3c(C)c(OCc4ccccc4)c(C)c(C)c3O2)cc(OC)c1OC (racemic)
50 | 138 to 141 | CCCCc1nn2c(C)c(C)nc2n1Cc1ccc(-c2ccccc2-c2nnn[nH]2)cc1
51 | 238 | Cc1c(C(=O)Nc2ccc(N3CCC(=O)CC3)c(C#N)c2)cnn1-c1ccc(Cl)cc1
52 | 125 to 127 | CN(Cc1cc2c3c(c1)c(=O)c(C(=O)NCc1ccc(Cl)cc1)cn3CC(=O)N2C)C[C@H](O)c1cccnc1
53 | 217 to 219 | O=C1N=CN(c2ccc(Cl)cc2)C12CCN(Cc1ccccc1)CC2
54 | 100 to 101 | COC(=O)c1ccc(OCc2cccc(OCc3ccc4ccccc4n3)c2)c(OC)c1
55 | 338 to 340 | Cc1cc2nc3ccc(C(=O)O)cn3c(=O)c2s1
56 | 191 to 192 | COc1c(C=O)ccc(OCC(=O)O)c1Cc1ccc2c(Cl)cccc2c1
57 | 160 to 162 | Cc1ccc2cccc(OCc3c(Cl)ccc(S(=O)(=O)N(C)C(C)(C)C)c3Cl)c2n1
58 | 109 to 115 | COCCOc1cc2ncnc(NC3=CC(=O)C(Oc4ccc(-n5ccnc5)cc4)=CC3=O)c2cc1OCCOC
59 | 158 to 159 | Cc1oc(-c2ccccc2)nc1COc1ccc(CON=C(CCC(=O)O)c2cccnc2)cc1
60 | 94 to 95 | CCOC(=O)c1cccc(-c2ccnc(OCCc3ccc(OC)c(OC)c3)n2)c1
61 | 150 to 151 | COC(=O)c1ccc(Cn2ncc3ccc(NC(=O)OC4CCCC4)cc32)c(OC)c1
62 | 95 to 96.5 | CCN(CC)Cc1cc(C(=O)c2ccc(Cl)cc2)cc(C(C)(C)C)c1O
63 | 203 to 205 | Nc1ncnc2c1c(-c1ccc(Oc3ccccc3)cc1)nn2C1CCC(=O)CC1
64 | 137 to 138 | CCOc1nc(-c2ccco2)c2ncn(Cc3ccc(OC)cc3)c2n1
65 | 188 to 190 | COc1ccccc1[C@@]1(O)[C@H](O)CC(c2ccccc2)(c2ccccc2)[C@@H]2CN(C(=O)Cc3ccc4ccccc4c3)C[C@@H]21 (racemic)
66 | 277 to 279 | CN1CCN(c2cc(C(=O)Nc3ccc4c(c3)-c3c(c(C(N)=O)nn3-c3ccc(F)cc3)CC4)ccn2)CC1
67 | 238 to 239 | N#Cc1ccc(COCCn2cnc3c(N)nc4ccccc4c32)cc1
68 | 225 to 231 | CC1(C)CCC(C)(C)c2cc(NCc3ccc(C(=O)O)cc3)ccc21
69 | 71 to 72 | CC(C)C(O)c1ccc(-c2ccc(Cl)cc2)cc1 (configuration not stated)
70 | 202 to 204 | COc1ccc2c(c1)CC(C(F)(F)F)N2C(=O)Nc1ccc(Oc2cccnc2)nc1 (configuration not stated)
71 | 237 to 239 | Cc1cccc(CNC(=O)c2nc3scc(COCc4ccc(C(=O)O)cc4)c3c(=O)[nH]2)c1

Row | melting point [°C] | SMILES
72 | 223 | CNC(=O)CCCC1CCN(Cc2cnc3cc(NC(=O)c4ccc(-c5ccc(F)cc5)cc4)c(C)cc3c2)CC1
73 | 97 to 98 | CC1(c2ccc(F)cc2)OC(C=Cc2ccsc2)=CC1=O (configuration not stated)
74 | 188 to 189 | CC(C)(C)c1ccc(C(N)=O)c(NC(=O)Nc2cccnc2)c1
75 | 169 to 170 | O=C(Nc1ccc(-n2nc(C(F)(F)F)cc2C(F)(F)F)cc1)c1cc(F)cc(F)c1F
76 | 99 to 101 | COc1ccc(S(=O)(=O)NCC2CCN(C[C@H]3COc4ccc(Cl)cc4O3)CC2)cc1OC
77 | 175 to 179 | O=C(Nc1cccc(O)c1)C(=O)N1CCC(Cc2ccc(F)cc2)CC1
78 | 223 to 229 | Cc1cn(-c2cc(NC(=O)n3ccc4cc(Oc5cc(CC(N)=O)ncn5)ccc43)cc(C(F)(F)F)c2)cn1
79 | 148 to 150 | CCCC(C)(Sc1ccc(OCCn2c(CC)nc3ccccc3c2=O)cc1)C(=O)OCC (configuration not stated)
80 | 194 to 196 | CC(C#N)=C1CCN(c2ccc(N3C[C@H](CNC(=O)CC#N)OC3=O)cc2F)CC1
81 | 164 | Cc1cccc(NC(=O)NC(CC(=O)N(CC(=O)OC(C)(C)C)c2ccccc2)c2ccccc2)c1 (racemic)
82 | 250 to 252 | COc1ccc(-c2c(Cl)c(CN3C(=O)CCC3=O)nc3sc4c(c23)CCN(C(=O)C(F)(F)F)C4)cc1
83 | 117 to 118 | COc1ccc(COC(=O)C(=CNc2ncccc2OC(=S)N(C)C)C(=O)OCc2ccc(OC)cc2)cc1
84 | 189 to 190 | Cc1oc(-c2ccccc2)nc1/C=C/c1ccc(COc2ccccc2CC(=O)O)cc1
85 | 239 to 241 | O=c1c2cc(F)c(N3CCCC3)cc2n(-c2cccc(F)c2)c(=O)n1O
86 | 170 to 172 | CCCN(Cc1ccc(-c2ccccc2-c2nc(=S)o[nH]2)cc1)c1nc(C)ncc1C(=O)OCC
87 | 260 to 263 | Nc1ccc(OCC(O)CN2CCN(c3ccccc3C(=O)O)CC2)cc1 (configuration not stated)
88 | 167 | O=c1c(Cl)c(OCc2ccc(Cl)cc2)cnn1-c1ccc(F)cc1F
89 | 138 to 140 | Oc1ccc(-c2nnc(CCCCCCCc3ccccc3)o2)cc1
90 | 183 to 185 | Cc1cc(Cc2ccc(O)cc2)n(C)c1C(=O)c1ccc(Cl)cc1
91 | 107 to 108 | COc1ccc(C(=O)C2=C(c3ccccc3)c3ccc(OC)cc3CC2)cc1
92 | 200 to 205 | Fc1cccc(F)c1-c1ncc(NCc2ccc(Cl)cc2)nn1
93 | 114 to 117 | COCCOc1ccc2cc3ccccc3cc2c1C=O
94 | 180 | CS(=O)(=O)N1CCN([C@@H](CNS(=O)(=O)c2ccc(OCc3ccnc4ccccc34)cc2)C(=O)NO)CC1
95 | 180 to 182 | O=c1[nH]c2ccc(OCCCCN3CCC(c4cccc(Cl)c4Cl)CC3)cc2[nH]1
96 | 170 to 174 | O=C(Nc1cccc(C(F)(F)F)c1)Nc1ccc(Oc2ncnc3ccn(CCOCCO)c23)cc1Cl
97 | 143 to 144 | O=C(CCCCOc1ccc(C2=NCCO2)cc1)c1ccc(Cl)s1
